From patent publication US9249129B2, “Morpholino substituted urea derivatives as mTOR inhibitors” (CELLZOME LIMITED, priority 2010, dated 2016)

Legend:
Experiment in all cases: kinobeads assay with mass spectrometry detection of kinases (kinase selectivity profile)
Type in all cases: binding
kinases (kinome) [1] = target: T1, kinases (kinome) (Homo sapiens, UniProt Q8NEB9); conditions: PIK3C3 (Lipid Kinase), IPI00873758
T1 construct: determined in kinobeads assays with mass spectrometry detection of kinases as described previously; endogenous in cells; host or cells: cell lysate
T1 sequence (Q8NEB9 whole entry): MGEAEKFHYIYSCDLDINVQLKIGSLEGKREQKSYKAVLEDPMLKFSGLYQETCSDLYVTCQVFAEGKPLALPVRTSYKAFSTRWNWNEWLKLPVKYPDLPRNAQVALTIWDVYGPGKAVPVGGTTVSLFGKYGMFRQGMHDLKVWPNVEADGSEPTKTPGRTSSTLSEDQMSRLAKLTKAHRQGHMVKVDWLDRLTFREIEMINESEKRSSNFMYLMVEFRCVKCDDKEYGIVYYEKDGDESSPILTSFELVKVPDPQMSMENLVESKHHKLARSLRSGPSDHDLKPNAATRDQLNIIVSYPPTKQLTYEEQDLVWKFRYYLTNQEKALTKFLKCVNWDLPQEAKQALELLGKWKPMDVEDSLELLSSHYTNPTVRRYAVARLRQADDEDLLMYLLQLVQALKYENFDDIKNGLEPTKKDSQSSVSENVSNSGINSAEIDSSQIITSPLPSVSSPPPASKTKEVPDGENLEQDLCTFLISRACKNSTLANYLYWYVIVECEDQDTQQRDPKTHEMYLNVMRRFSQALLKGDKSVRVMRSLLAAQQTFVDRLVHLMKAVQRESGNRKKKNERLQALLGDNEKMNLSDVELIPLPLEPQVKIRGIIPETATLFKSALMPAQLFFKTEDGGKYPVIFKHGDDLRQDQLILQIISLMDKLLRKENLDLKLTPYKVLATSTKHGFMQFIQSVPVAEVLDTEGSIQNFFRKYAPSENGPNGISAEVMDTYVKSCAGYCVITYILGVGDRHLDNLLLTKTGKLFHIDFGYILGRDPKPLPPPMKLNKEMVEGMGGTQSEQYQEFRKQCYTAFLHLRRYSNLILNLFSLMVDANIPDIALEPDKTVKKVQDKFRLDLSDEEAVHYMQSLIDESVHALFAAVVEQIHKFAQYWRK
Excerpt: (§1) The protein kinase complement of the human genome (the kinome) was described previously (Manning et al., 2002. Science 298(5600):1912-1934). Sequence accession numbers are defined by the International Protein Index (IPI) (Kersey et al., 2004. Proteomics 4(7):1985-1988).

kinases (kinome) [2] = target: T2, kinases (kinome) (Homo sapiens, UniProt Q99570); conditions: PIK3R4 (Other), IPI00024006
T2 construct: determined in kinobeads assays with mass spectrometry detection of kinases as described previously; endogenous in cells; host or cells: cell lysate
T2 sequence (Q99570 whole entry): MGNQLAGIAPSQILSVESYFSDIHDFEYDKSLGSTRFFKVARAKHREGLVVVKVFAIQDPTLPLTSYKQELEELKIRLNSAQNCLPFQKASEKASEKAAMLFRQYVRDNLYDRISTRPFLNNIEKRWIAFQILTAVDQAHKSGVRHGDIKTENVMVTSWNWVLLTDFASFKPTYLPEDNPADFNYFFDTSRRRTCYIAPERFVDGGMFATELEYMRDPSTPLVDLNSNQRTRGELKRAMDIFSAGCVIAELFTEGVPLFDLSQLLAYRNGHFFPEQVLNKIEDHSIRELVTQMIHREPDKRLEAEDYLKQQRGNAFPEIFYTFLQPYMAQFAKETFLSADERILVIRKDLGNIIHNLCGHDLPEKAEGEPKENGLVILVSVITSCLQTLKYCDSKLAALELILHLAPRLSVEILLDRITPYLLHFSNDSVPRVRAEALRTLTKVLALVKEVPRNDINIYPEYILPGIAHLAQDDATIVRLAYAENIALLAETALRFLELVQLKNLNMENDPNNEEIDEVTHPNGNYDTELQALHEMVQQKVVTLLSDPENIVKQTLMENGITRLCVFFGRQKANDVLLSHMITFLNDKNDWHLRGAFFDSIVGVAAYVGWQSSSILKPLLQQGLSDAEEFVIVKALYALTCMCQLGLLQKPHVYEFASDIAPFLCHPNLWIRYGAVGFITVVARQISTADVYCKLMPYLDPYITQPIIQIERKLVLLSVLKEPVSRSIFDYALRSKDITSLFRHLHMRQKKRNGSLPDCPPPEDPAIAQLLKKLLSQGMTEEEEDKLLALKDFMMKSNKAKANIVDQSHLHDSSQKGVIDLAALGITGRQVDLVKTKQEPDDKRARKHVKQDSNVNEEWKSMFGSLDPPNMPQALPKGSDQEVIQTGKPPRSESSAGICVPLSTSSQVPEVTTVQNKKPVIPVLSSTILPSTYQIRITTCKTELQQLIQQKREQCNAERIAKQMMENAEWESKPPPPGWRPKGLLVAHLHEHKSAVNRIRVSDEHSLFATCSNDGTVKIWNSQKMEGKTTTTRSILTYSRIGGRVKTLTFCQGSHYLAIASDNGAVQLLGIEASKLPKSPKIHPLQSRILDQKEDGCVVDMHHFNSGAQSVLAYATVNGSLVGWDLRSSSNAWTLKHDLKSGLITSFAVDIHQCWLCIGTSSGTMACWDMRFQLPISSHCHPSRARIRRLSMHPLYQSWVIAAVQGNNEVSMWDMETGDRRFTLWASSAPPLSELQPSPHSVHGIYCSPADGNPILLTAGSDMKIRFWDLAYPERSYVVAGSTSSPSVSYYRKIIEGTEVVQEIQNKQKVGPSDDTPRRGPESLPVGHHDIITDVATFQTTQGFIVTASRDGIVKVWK
Excerpt: as §1

kinases (kinome) [3] = target: T3, kinases (kinome) (Homo sapiens, UniProt P00519); conditions: ABL (TK), IPI00221171
T3 construct: determined in kinobeads assays with mass spectrometry detection of kinases as described previously; endogenous in cells; host or cells: cell lysate
T3 sequence (P00519 whole entry): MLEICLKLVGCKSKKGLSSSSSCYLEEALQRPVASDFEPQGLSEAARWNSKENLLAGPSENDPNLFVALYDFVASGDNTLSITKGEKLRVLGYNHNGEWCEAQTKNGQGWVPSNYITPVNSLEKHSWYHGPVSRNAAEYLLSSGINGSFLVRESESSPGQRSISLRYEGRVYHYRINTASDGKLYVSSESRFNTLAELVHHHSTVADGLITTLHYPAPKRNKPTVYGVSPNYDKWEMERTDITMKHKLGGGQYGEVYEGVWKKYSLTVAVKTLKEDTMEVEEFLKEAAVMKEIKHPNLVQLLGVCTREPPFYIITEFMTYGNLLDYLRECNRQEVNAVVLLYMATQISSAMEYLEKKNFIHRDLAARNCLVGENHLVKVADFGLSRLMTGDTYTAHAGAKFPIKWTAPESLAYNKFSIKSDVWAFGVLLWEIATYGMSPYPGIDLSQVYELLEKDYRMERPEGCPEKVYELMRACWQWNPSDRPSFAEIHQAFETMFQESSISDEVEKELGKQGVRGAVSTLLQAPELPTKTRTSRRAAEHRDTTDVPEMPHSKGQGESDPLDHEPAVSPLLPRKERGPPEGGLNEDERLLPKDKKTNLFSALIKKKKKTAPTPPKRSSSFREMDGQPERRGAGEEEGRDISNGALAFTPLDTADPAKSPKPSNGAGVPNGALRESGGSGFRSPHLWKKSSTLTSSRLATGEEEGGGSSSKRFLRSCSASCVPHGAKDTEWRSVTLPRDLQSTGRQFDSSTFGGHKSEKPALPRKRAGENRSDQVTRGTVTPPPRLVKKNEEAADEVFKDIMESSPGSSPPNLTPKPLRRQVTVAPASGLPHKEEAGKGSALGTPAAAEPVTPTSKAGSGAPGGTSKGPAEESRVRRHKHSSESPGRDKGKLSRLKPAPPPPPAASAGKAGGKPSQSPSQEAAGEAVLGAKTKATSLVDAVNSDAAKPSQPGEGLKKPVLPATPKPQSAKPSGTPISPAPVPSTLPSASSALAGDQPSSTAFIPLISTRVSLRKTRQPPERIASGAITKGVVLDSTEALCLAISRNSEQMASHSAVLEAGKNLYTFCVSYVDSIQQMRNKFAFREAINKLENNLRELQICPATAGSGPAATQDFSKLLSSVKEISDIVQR
Excerpt: as §1

kinases (kinome) [4] = target: T4, kinases (kinome) (Homo sapiens, UniProt O14976); conditions: GAK (Other), IPI00298949
T4 construct: determined in kinobeads assays with mass spectrometry detection of kinases as described previously; endogenous in cells; host or cells: cell lysate
T4 sequence (O14976 1-1311): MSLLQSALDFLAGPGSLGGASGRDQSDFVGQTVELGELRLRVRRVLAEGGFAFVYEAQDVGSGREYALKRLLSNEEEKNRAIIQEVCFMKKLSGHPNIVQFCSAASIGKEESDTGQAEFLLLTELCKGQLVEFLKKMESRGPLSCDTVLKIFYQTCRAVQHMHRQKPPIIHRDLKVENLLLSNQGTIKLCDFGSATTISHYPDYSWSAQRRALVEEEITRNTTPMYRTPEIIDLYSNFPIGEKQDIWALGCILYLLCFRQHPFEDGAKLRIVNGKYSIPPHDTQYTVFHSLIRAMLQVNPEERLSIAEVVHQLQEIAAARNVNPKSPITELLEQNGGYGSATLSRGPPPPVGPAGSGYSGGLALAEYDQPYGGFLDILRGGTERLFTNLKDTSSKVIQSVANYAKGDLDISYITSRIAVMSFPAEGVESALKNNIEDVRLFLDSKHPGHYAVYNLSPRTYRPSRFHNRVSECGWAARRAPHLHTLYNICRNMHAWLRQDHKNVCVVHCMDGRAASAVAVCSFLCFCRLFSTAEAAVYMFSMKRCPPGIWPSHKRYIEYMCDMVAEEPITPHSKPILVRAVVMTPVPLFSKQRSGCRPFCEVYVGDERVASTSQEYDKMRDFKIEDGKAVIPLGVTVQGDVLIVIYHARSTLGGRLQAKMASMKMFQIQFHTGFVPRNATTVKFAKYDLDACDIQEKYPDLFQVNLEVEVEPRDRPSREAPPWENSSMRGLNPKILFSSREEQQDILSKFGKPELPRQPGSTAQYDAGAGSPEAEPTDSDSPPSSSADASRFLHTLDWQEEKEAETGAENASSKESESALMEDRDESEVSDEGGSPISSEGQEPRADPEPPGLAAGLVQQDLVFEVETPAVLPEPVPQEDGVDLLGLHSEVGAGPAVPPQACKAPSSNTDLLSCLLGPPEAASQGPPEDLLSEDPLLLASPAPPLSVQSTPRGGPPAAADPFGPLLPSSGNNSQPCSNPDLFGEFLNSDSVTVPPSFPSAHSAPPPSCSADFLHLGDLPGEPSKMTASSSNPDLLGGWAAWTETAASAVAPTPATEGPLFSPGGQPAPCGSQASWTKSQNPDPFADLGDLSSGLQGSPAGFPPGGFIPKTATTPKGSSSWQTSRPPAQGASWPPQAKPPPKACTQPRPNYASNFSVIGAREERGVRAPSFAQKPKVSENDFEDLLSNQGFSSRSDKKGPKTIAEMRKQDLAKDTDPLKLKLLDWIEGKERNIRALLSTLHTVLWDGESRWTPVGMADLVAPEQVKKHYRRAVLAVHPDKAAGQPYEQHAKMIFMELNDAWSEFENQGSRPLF
Excerpt: as §1

kinases (kinome) [5] = target: T5, kinases (kinome) (Homo sapiens, UniProt Q9BYT3); conditions: STK33 (CAMK), IPI00302351
T5 construct: determined in kinobeads assays with mass spectrometry detection of kinases as described previously; endogenous in cells; host or cells: cell lysate
T5 sequence (Q9BYT3 whole entry): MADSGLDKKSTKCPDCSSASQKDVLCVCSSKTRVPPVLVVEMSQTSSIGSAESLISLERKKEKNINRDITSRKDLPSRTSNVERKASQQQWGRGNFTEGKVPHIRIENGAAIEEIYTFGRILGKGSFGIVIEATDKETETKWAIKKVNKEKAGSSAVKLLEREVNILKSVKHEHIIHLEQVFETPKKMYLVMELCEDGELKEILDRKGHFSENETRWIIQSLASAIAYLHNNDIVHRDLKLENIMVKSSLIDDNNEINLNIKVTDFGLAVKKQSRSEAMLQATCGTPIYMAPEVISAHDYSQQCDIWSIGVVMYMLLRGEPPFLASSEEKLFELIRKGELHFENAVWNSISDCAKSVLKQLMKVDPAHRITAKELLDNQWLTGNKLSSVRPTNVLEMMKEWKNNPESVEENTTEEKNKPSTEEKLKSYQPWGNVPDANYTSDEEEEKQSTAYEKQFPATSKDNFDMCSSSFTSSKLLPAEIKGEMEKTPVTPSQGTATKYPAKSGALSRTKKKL
Excerpt: as §1

Measured: IC50

C[C@H]1COCCN1c1nc(-c2ccc(NC(=O)N[C@H]3CCC[C@@H]3O)cc2)cc(-c2cc(F)ccc2S(C)(=O)=O)n1 [Example 76, 1-(4-(6-(5-fluoro-2-(methylsulfonyl)phenyl)-2-((S)-3-methylmorpholino)pyrimidin-4-yl)phenyl)-3-((1S,2S)-2-hydroxycyclopentyl)urea]
not listed: kinases (kinome) [5]
> 10 µM: all other assays above

C[C@H]1COCCN1c1nc(-c2ccc(NC(=O)NC3CC3)cc2)cc(-c2ccccc2S(C)(=O)=O)n1 [Example 4, (S)-1-cyclopropyl-3-(4-(2-(3-methylmorpholino)-6-(2-(methylsulfonyl)phenyl)pyrimidin-4-yl)phenyl)urea]
> 10 µM: all assays above

C[C@H]1COCCN1c1cc(-c2ccccn2)nc(-c2ccc(NC(=O)NCCO)cc2)n1 [Example 43, (S)-1-(2-hydroxyethyl)-3-(4-(4-(3-methylmorpholino)-6-(pyridin-2-yl)pyrimidin-2-yl)phenyl)urea]
> 10 µM: kinases (kinome) [1] | kinases (kinome) [2] | kinases (kinome) [4]

C[C@H]1COCCN1c1nc(-c2ccc(NC(=O)NC3CC3)cc2)cc(-c2cccnc2S(C)(=O)=O)n1 [Example 46, (S)-1-cyclopropyl-3-(4-(2-(3-methylmorpholino)-6-(2-(methylsulfonyl)pyridin-3-yl)pyrimidin-4-yl)phenyl)urea]
not listed: kinases (kinome) [3]
> 10 µM: all other assays above

C[C@H]1COCCN1c1nc(-c2ccc(NC(=O)NC3CC3)cc2)cc(-c2cc(F)ccc2S(C)(=O)=O)n1 [Example 40, (S)-1-cyclopropyl-3-(4-(6-(5-fluoro-2-(methylsulfonyl)phenyl)-2-(3-methylmorpholino)pyrimidin-4-yl)phenyl)urea]
> 10 µM: all assays above
